What follows are compounds tested against Carbonic anhydrase 1 (Homo sapiens, UniProt P00915).
Sequence of Carbonic anhydrase 1 (P00915 whole entry): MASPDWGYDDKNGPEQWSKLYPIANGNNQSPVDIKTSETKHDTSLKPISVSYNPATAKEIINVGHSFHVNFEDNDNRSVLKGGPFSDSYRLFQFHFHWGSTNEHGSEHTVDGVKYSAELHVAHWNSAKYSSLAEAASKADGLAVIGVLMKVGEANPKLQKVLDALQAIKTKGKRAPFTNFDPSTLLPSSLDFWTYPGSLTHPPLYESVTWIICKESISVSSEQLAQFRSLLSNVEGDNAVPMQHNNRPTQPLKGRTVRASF

First: CCCCCC(=O)Nc1ccc(S(N)(=O)=O)cc1
Second: NS(=O)(=O)c1ccc(NC(=O)CCCCC(F)(F)C(F)(F)F)cc1
The Ki of the first is 15-fold higher: 14200 nM for the first, 950 nM for the second.

NS(=O)(=O)c1ccc(CCNC(=O)c2cc3ccccc3oc2=O)cc1 and NS(=O)(=O)c1ccc(CNC(=O)c2cc3ccccc3oc2=O)cc1 are within 1.5-fold of each other in Ki: 66 nM for the first, 69 nM for the second.

Going from CC(=O)Nc1ccc(S(=O)(=O)NCCc2ccc(S(N)(=O)=O)cc2)cc1 to NS(=O)(=O)c1ccc(CCNS(=O)(=O)c2ccccc2)cc1, the Ki falls from 187 nM to 69 nM (2.7-fold). The second binds more tightly here.

CC(=O)Nc1ccc(S(=O)(=O)Nc2nnc(S(N)(=O)=O)s2)cc1Cl and CC(=O)Nc1ccc(S(=O)(=O)Nc2nnc(S(N)(=O)=O)s2)cc1F are within 1.5-fold of each other in Ki: 5 nM for the first, 6 nM for the second.

CC(C)(C)C(=O)Nc1nnc(S(N)(=O)=O)s1 and NS(=O)(=O)c1nnc(NC(=O)c2ccccc2)s1 are within 1.5-fold of each other in Ki: 645 nM for the first, 900 nM for the second.

NS(=O)(=O)c1ccc(NS(=O)(=O)c2ccc([N+](=O)[O-])cc2)cc1 and NS(=O)(=O)c1ccc(NS(=O)(=O)c2ccc(F)cc2)cc1 are within 1.5-fold of each other in Ki: 31 nM for the first, 40 nM for the second.

Going from NS(=O)(=O)c1ccc(NC(=O)c2cc3ccccc3oc2=O)cc1 to NS(=O)(=O)c1ccc(CNC(=O)Nc2ccccc2)cc1, the Ki rises from 74 nM to 800 nM (11-fold). The first binds more tightly here.

Going from NS(=O)(=O)c1ccc(/N=C\c2ncc[nH]2)cc1 to CC(=O)Nc1ccc(S(N)(=O)=O)cc1, the Ki rises from 1000 nM to 21400 nM (21-fold). The first binds more tightly here.

Cn1nc(S(N)(=O)=O)s/c1=N/C(=O)CCCCC(F)(F)C(F)(F)F and NS(=O)(=O)c1nnc(NC(=O)CCCCC(F)(F)C(F)(F)F)s1 are within 1.5-fold of each other in Ki: 270 nM for the first, 250 nM for the second.

Going from NS(=O)(=O)c1ccc(CCNC(=O)Nc2ccc(Cl)c(Cl)c2)cc1 to Cn1nc(S(N)(=O)=O)s/c1=N/C(=O)c1ccccc1, the Ki rises from 12 nM to 850 nM (71-fold). The first binds more tightly here.

For Cn1nc(S(N)(=O)=O)s/c1=N/C(=O)c1ccco1, the Ki was 290 nM.

The compounds below were run against T1, Carbonic anhydrase 4 (Bos taurus, UniProt Q95323).
T1 sequence (Q95323 whole entry): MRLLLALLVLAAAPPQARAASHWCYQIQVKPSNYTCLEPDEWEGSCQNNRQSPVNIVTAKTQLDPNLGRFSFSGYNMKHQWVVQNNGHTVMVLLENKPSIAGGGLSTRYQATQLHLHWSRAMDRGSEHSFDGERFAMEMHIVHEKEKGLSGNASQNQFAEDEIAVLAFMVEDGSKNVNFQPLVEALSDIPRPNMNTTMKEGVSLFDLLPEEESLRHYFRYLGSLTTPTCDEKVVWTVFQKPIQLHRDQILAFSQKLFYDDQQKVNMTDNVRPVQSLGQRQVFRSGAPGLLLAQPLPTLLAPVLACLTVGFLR

Going from CCN[C@H]1CC(CCCOC)S(=O)(=O)c2sc(S(N)(=O)=O)cc21 (stereo not given in full) to CCCCCC(=O)Nc1ccc(S(N)(=O)=O)cc1, the Ki rises from 45 nM to 980 nM (22-fold).

CC(=O)Nc1ccc(S(=O)(=O)Nc2nnc(S(N)(=O)=O)s2)cc1Br and CC(=O)Nc1ccc(S(=O)(=O)Nc2nnc(S(N)(=O)=O)s2)cc1Cl are the same in Ki: 4 nM for the first, 4 nM for the second.

Going from NS(=O)(=O)c1ccc(CNS(=O)(=O)c2ccccc2)cc1 to NS(=O)(=O)c1ccc(CCNS(=O)(=O)c2ccccc2)cc1, the Ki falls from 64 nM to 39 nM (1.6-fold). The second binds more tightly here.

CC(C)(C)C(=O)Nc1ccc(S(N)(=O)=O)cc1 and CC(=O)Nc1ccc(S(N)(=O)=O)cc1 are within 1.5-fold of each other in Ki: 2550 nM for the first, 2850 nM for the second.

Going from CC(=O)Nc1ccc(S(=O)(=O)NCCc2ccc(S(N)(=O)=O)cc2)cc1 to NS(=O)(=O)c1ccc(NS(=O)(=O)c2ccc(F)cc2)cc1, the Ki falls from 119 nM to 15 nM (7.9-fold).

CC(C)C(=O)Nc1ccc(S(N)(=O)=O)cc1 and CCC(=O)Nc1ccc(S(N)(=O)=O)cc1 are within 1.5-fold of each other in Ki: 2840 nM for the first, 2630 nM for the second.

NS(=O)(=O)c1ccc(NC(=O)c2ccccc2)cc1 and NS(=O)(=O)c1ccc(CNC(=O)Nc2ccccc2)cc1 are within 1.5-fold of each other in Ki: 176 nM for the first, 140 nM for the second.

CC(C)(C)C(=O)Nc1nnc(S(N)(=O)=O)s1 and NS(=O)(=O)c1nnc(NC(=O)c2ccccc2)s1 are within 1.5-fold of each other in Ki: 185 nM for the first, 163 nM for the second.

CCCC(=O)Nc1ccc(S(N)(=O)=O)cc1 and CCCCC(=O)Nc1ccc(S(N)(=O)=O)cc1 are within 1.5-fold of each other in Ki: 2540 nM for the first, 2370 nM for the second.

Compared with NS(=O)(=O)c1ccc(NS(=O)(=O)c2ccc([N+](=O)[O-])cc2)cc1, NS(=O)(=O)c1ccc(NS(=O)(=O)c2ccccc2)cc1 is 3.9-fold higher in Ki: 22 nM for the first, 85 nM for the second. The first binds more tightly here.

Compared with NS(=O)(=O)c1ccc(/N=C\c2ncc[nH]2)cc1, NS(=O)(=O)c1ccc(NC(=O)C(F)(F)F)cc1 is 16-fold higher in Ki: 130 nM for the first, 2100 nM for the second. The first binds more tightly here.

Cn1nc(S(N)(=O)=O)s/c1=N/C(=O)CCCCC(F)(F)C(F)(F)F and NS(=O)(=O)c1nnc(NC(=O)CCCCC(F)(F)C(F)(F)F)s1 are within 1.5-fold of each other in Ki: 8 nM for the first, 10 nM for the second.

Compared with NS(=O)(=O)c1ccc(CCNC(=O)Nc2ccc(Cl)c(Cl)c2)cc1, CC(=O)Nc1ccc(S(=O)(=O)Nc2nnc(S(N)(=O)=O)s2)cc1 is 2.5-fold lower in Ki: 20 nM for the first, 8 nM for the second. The second binds more tightly here.

First: Cn1nc(S(N)(=O)=O)s/c1=N/C(=O)c1ccccc1
Second: Cn1nc(S(N)(=O)=O)s/c1=N/C(=O)c1ccco1
The Ki of the first is 5.8-fold higher: 174 nM for the first, 30 nM for the second.

NS(=O)(=O)c1ccc(NC(=O)CCCCC(F)(F)C(F)(F)F)cc1 was tested, and the Ki was 600 nM.

What follows are compounds tested against Carbonic anhydrase 2 (Homo sapiens, UniProt P00918).

Compared with CC(=O)Nc1ccc(S(=O)(=O)Nc2nnc(S(N)(=O)=O)s2)cc1Br, CC(=O)Nc1ccc(S(=O)(=O)Nc2nnc(S(N)(=O)=O)s2)cc1Cl is 2-fold lower in Ki: 2 nM for the first, 1 nM for the second.

First: CCCCCC(=O)Nc1ccc(S(N)(=O)=O)cc1
Second: CC(=O)Nc1ccc(S(N)(=O)=O)cc1
The Ki of the first is 3.9-fold lower: 63 nM for the first, 246 nM for the second.

Compared with CC(=O)Nc1ccc(S(=O)(=O)NCCc2ccc(S(N)(=O)=O)cc2)cc1, NS(=O)(=O)c1ccc(CCNS(=O)(=O)c2ccccc2)cc1 is 2.7-fold lower in Ki: 75 nM for the first, 28 nM for the second.

NS(=O)(=O)c1ccc(NS(=O)(=O)c2ccc([N+](=O)[O-])cc2)cc1 and NS(=O)(=O)c1ccc(NS(=O)(=O)c2ccc(F)cc2)cc1 are within 1.5-fold of each other in Ki: 10 nM for the first, 9 nM for the second.

Going from NS(=O)(=O)c1ccc(/N=C\c2ncc[nH]2)cc1 to NS(=O)(=O)c1ccc(CCNC(=O)Nc2ccc(Cl)c(Cl)c2)cc1, the Ki falls from 120 nM to 13 nM (9.2-fold).

Compared with CC(=O)Nc1ccc(S(=O)(=O)Nc2nnc(S(N)(=O)=O)s2)cc1F, CC(=O)Nc1ccc(S(=O)(=O)Nc2nnc(S(N)(=O)=O)s2)cc1 is 3-fold higher in Ki: 1 nM for the first, 3 nM for the second.

First: Cn1nc(S(N)(=O)=O)s/c1=N/C(=O)c1ccccc1
Second: Cn1nc(S(N)(=O)=O)s/c1=N/C(=O)c1ccco1
The Ki of the first is 2.8-fold higher: 17 nM for the first, 6 nM for the second. The second binds more tightly here.

In the case of NS(=O)(=O)c1nnc(NC(=O)CCCCC(F)(F)C(F)(F)F)s1, the Ki is reported as 2 nM.
